The values that follow come from article PMC8772772, “Enantioselective Synthesis and Pharmacological Evaluation of Aza-CGP37157–Lipoic Acid Hybrids for the Treatment of Alzheimer’s Disease” (Antioxidants, 2022).

The test system of the assay is NRF2. As to the kind of experiment: NRF2 nuclear localization, immunocytochemistry in AREc32 cells. Conditions: 30 μM, 2 h, vs basal. The class given is cell-based. How it is done: AREc32 cells were plated in 24 multi-well plates on poly-D-Lysine-coated crystal slides (4 × 10^4 cells/well). Cells were treated with compounds 7a or 7b (30 µM) for 2 h and fixed by treatment with 4% paraformaldehyde solution in PBS (10 min). After 3 washings with PBS every 5 min, cells were permeabilized with 0.1% Triton X-100 solution for five min, washed 3 times with PBS (5 min) and incubated overnight with primary antibody anti-NRF2 (1:50, A-10, sc-365949, Santa Cruz Biotechnology, Dallas, TX, USA). Thereafter, cells were washed with PBS (3×, 5 min) and incubated with secondary antibody (1:500, 1 h). Finally, nuclei were stained with 5 µg/mL PBS solution of Hoechst 33342 (Invitrogen, Madrid, Spain) during the second wash. Finally, slides were mounted on coverslips (glycerol–PBS (1:1 v/v)), and images were obtained in a confocal microscope (TCS SPE, Leica, Wetzlar, Germany).
To obtain deeper insight into the mechanism of action of compounds 7, we evaluated their potential capacity to induce NRF2 nuclear localization and the activation of the phase II response. As previously described, NRF2 is sequestered at the cytoplasm by its repressor protein KEAP1, which mediates its proteasomal degradation. […] Thus, we firstly evaluated the capacity of compounds 7a and 7b to induce NRF2 nuclear localization as part of their mechanism of action. […]

Consider `O=C1CN(CCOC(=O)CCCC[C@H]2CCSS2)[C@@H](c2ccccc2Cl)c2cc(Cl)ccc2N1` [(S,R)-7b, 2-((R)-7-Chloro-5-(2-chlorophenyl)-2-oxo-1,2,3,5-tetrahydro-4H-benzo[e][1,4]diazepin-4-yl)ethyl 5-((S)-1,2-dithiolan-3-yl)pentanoate], for which the NRF2 nuclear localization entry is reported as “predominantly nuclear localization of NRF2”.
To `O=C1CN(CCOC(=O)CCCC[C@H]2CCSS2)[C@H](c2ccccc2Cl)c2cc(Cl)ccc2N1` [(S,S)-7a, 2-((S)-7-Chloro-5-(2-chlorophenyl)-2-oxo-1,2,3,5-tetrahydro-4H-benzo[e][1,4]diazepin-4-yl)ethyl 5-((S)-1,2-dithiolan-3-yl)pentanoate] belongs “predominantly nuclear localization of NRF2”.
